Results as given in patent publication US9102636B2, “Analgesic compounds, compositions, and uses thereof” (Galleon Pharmaceuticals, Inc., priority 2010, dated 2015).
Several values for one entry are separate records, joined by “and”; a condition that tells them apart may be missing. Identical values can stand only once. Entries after “also recorded” stand apart in the source; their conditions may differ.

Assays:
[1] = L-012 assay: inhibition of SIN-1 generated peroxynitrite induced luminescence/fluorescence of L-012; format: biochemical; conditions: 15 minute time point; average of three plates
Description: Luminol like compound “L-012” is a chemilumescent probe that is activated by the presence of a ROS and/or RNS such as peroxynitrite. In this assay L-012 was oxidized by the addition of 3-Morpholino-sydnonimine (“SIN-1”), a known peroxynitrite generator. The emitted fluorescence was directly proportional to the concentration of SIN-1. The compounds of the invention were then assessed for their ability to scavenge peroxynitrite by blocking the increase of peroxynitrite induced fluorescence. Concentrations of compound producing 50% inhibition of the fluorescence signal (IC50 values) were calculated by testing the compounds of the invention at various concentrations and averaging the IC50 of three plates.
The following solutions were added to white polystyrene, non-sterile 96-well plate (Costar #3912): 196 μL of 50 μM L-012; 2 μL of the test compound; and 24 μL of 500 mM SIN-1. Fresh stock of 50 μM L-012 in PBS pH 7.4 was made for each 96 well plate that was analyzed. The plates were read in a FlexStation3 (Molecular Devices) using the luminescent mode at 37° C. for 30 min, with a measurement every 30 seconds and an integration time of 100 msec.
Luminescence signal was recorded by the FlexStation3 kinetically at 37° C. for 30 minutes, with a measurement every 30 seconds and an integration time of 100 msec. The data in rows A and H were dropped from each plate to exclude the possibility of an ‘edge effect’. Thus, each test compound had 3 replicates per plate.

[2] = test system: FCA induced tactile allodynia; assay: FCA induced tactile allodynia (electronic von Frey); format: in vivo, rat
Description: (§1) Compound 2 was evaluated in the rat Freund's complete adjuvant (FCA) model of inflammatory pain. The rat Freund's complete adjuvant (FCA) intraplantar model of inflammatory pain produces behaviors similar to those observed in patients and has been widely used to assess novel pharmacological treatments (Lam et al., 2008, J Ethnopharmacol. 120:44-50). The positive control was celecoxib (TRC, Montreal), and the negative control was vehicle (0.5% methyl cellulose, in phosphate buffered saline). […] The Hargreaves apparatus was obtained from Ugo Basile, Italy. The Freund's complete adjuvant was obtained from Sigma, St. Louis, and the electronic von frey was obtained from Stoelting, Ill. For this assay, paw withdrawal latency to a thermal stimulus was assessed using a radiant heat source (Ugo Basile, Italy) aimed at the plantar surface of the left hind paw (Hargreaves test; […] Paw withdrawal thresholds to a non-noxious tactile stimulus was assessed using an electronic von Frey apparatus that presented an increasing mechanical force to the plantar surface of the hind paw. Paw volume was measured by displacement of water and assuming a tissue density equal to that of water. […] Celecoxib (30 mg/kg p.o.) served as the positive control. […] After induction of anesthesia, the injection site was prepared in a sterile manner and 100 μl of a 50% suspension of FCA injected. After injection, animals were weighed and allowed to recover before being returned to their home cages. Statistical significance was determined on untransformed data using a two-way analysis of variance (Graphpad Prism, NC). Significant main effects were analyzed further by subsequent Bonferronni post-hoc test. The level of significance was set at p<0.05. Data are shown as mean±S.E.M. (with an asterisk to denote significance as compared to vehicle treated controls).

FCA induced edema = FCA induced edema (paw volume); format: in vivo, rat
Description: as §1

ataxia (rotarod) = assay: Accelerating rotarod assay of ataxia (latency to fall); format: in vivo, rat; conditions: for Latency to fall: Haloperidol 3 mg/kg p.o., maximum 300 seconds, individual animals
Description: Compound 2 was evaluated in a rat accelerating rotarod model of ataxia. Ataxia is a common clinical problem with CNS-active compounds and can often confound interpretation of efficacy in preclinical pain models. The rotarod assay of ataxia has been widely used to assess the side-effect liability of novel pharmacological treatments (Jones & Roberts, 1968, J. Pharm. […] The positive control was haloperidol (Sigma, St. […] Male Sprague-Dawley Rats (Harlan, Ill.) were 250-300 g at time of dosing. Rotarod was obtained from IITC, CA. To examine the potential effects of Compound 2 on motor performance, rats were tested on an accelerating rotarod (IITC, Ca). […] Rats received two timed training trials (averaged to give the reported baseline) on the first day, then 24 hr later rats were administered Compound 2 (30, 100 and 300 mg/kg, p.o.), haloperidol (3 mg/kg, p.o.), the positive control, or vehicle. […] Statistical significance was determined on untransformed data using a two-way analysis of variance (Graphpad Prism, NC). Significant main effects were analyzed further by subsequent Bonferronni post-hoc test. The level of significance was set at p<0.05. Data are shown as mean±S.E.M. (with an asterisk to denote significance as compared to vehicle treated controls).

[3] = test system: spinal nerve ligation induced tactile allodynia; assay: Spinal nerve ligation (SNL, Chung model) induced tactile allodynia (von Frey filaments); format: in vivo, rat; conditions: for Paw withdrawal threshold: FIG. 24, fasted; for Paw withdrawal threshold / Paw threshold: individual animals; for Paw threshold: FIG. 25, gabapentin (positive control, 100 mg/kg i.p.)

## CC1(C)SC(Nc2ccccc2O)=N[C@H]1C(=O)O [Compound 1, (S)-2-(2-hydroxyphenylamino)-thiazoline-5,5-dimethyl-4-carboxylic acid]
[1]
  IC50: 270 nM

## CC1(C)SC(Nc2cc(Cl)ccc2O)=N[C@H]1C(=O)O [Compound 21, (S)-2-(2-Hydroxy-5-chlorophenylamino)-thiazoline-5,5-dimethyl-4-carboxylic acid]
[1]
  IC50: 260 nM

## Cc1ccc(O)c(NC2=N[C@@H](C(=O)O)C(C)(C)S2)c1 [Compound 24, (S)-2-(2-Hydroxy-5-methylphenylamino)-thiazoline-5,5-dimethyl-4-carboxylic acid]
[1]
  IC50: 540 nM

## Cc1ccc(-c2cc(C(F)(F)F)nn2-c2ccc(S(N)(=O)=O)cc2)cc1 [celecoxib, reference compound]
[2]; 60 (min post-dose), celecoxib 30 mg/kg p.o. 24 hours post-FCA
  Paw withdrawl threshold: 29.9 g and 32.4 g and 19.8 g and 23.2 g and 30.9 g
[2]; baseline (pre-FCA), celecoxib 30 mg/kg group, individual rats
  Paw withdrawl threshold: 31.8 g (2×) and 39.4 g and 25.93 g and 36.6 g and 37.73 g
FCA induced edema; 24 hrs post, Celecoxib (30 mg/kg p.o.), FIG. 20A
  Paw volume: 2.8 mL and 3.1 mL and 2.7 mL and 3 mL and 2.2 mL
FCA induced edema; 48 hrs post, Celecoxib (30 mg/kg p.o.), FIG. 20A
  Paw volume: 2.7 mL and 2.8 mL and 2.2 mL
FCA induced edema; FCA/celecoxib, 30 mg/kg p.o., 1 hr (D2), individual animals, 30 mg/kg
  Paw volume: 2.3 mL (2×) and 2.6 mL and 2.4 mL (2×) and 2.7 mL (2×) and 2.5 mL
FCA induced edema; FCA/celecoxib, 30 mg/kg p.o., 1 hr, individual animals, 30 mg/kg
  Paw volume: 2.7 mL (3×) and 2.9 mL and 2.6 mL and 3.1 mL and 3 mL (2×)
FCA induced edema; FCA/celecoxib, 30 mg/kg p.o., 3 hrs (D2), individual animals, 30 mg/kg
  Paw volume: 2.4 mL and 2.5 mL (2×) and 2.3 mL (2×) and 2.7 mL and 2.6 mL and 2.8 mL
FCA induced edema; FCA/celecoxib, 30 mg/kg p.o., 3 hrs, individual animals, 30 mg/kg
  Paw volume: 2.7 mL (3×) and 2.9 mL (2×) and 2.8 mL and 3.1 mL and 2.6 mL
FCA induced edema; FCA/celecoxib, 30 mg/kg p.o., Pre-Drug (D2), individual animals, 30 mg/kg
  Paw volume: 2.4 mL and 2.6 mL (2×) and 2.3 mL (2×) and 2.5 mL and 2.7 mL and 2.8 mL
FCA induced edema; FCA/celecoxib, 30 mg/kg p.o., Pre-Drug, individual animals, 30 mg/kg
  Paw volume: 2.8 mL (3×) and 3.1 mL (2×) and 2.9 mL and 3 mL and 3.2 mL
FCA induced edema; FCA/celecoxib, 30 mg/kg p.o., Pre-FCA (baseline), individual animals, 30 mg/kg
  Paw volume: 1.7 mL (6×) and 1.8 mL and 1.9 mL
FCA induced edema; Pre-FCA, Celecoxib (30 mg/kg p.o.) group, individual rats, FIG. 20A
  Paw volume: 1.8 mL and 1.9 mL (2×) and 1.7 mL (2×) and 1.5 mL

## COC(=O)[C@@H]1N=C(Nc2ccc(OC)cc2O)SC1(C)C [Compound 27, (S)-2-(2-Hydroxy-4-methoxyphenylamino)-thiazoline-5,5-dimethyl-4-carboxylic acid methyl ester]
[1]
  IC50: 300 nM

## O=C(CCCN1CCC(O)(c2ccc(Cl)cc2)CC1)c1ccc(F)cc1 [haloperidol, reference compound]
Ataxia (rotarod); Baseline
  Latency to fall: 60 s and 38 s and 42.5 s and 59 s and 68 s and 48 s and 86 s and 62 s and 71 s and 80 s and 57 s
Ataxia (rotarod); Post-Drug (1 hr)
  Latency to fall: 9 sec and 10 sec (2×) and 7 sec and 2 sec (2×) and 5 sec (2×) and 6 sec and 30 sec and 15 sec
Ataxia (rotarod); rat, haloperidol 3 mg/kg p.o., 1 h post-administration
  latency to fall, accelerating rotarod, positive control: significant motor deficits; also recorded: substantial reduction in latency

## COC(=O)[C@@H]1N=C(Nc2cc(Cl)ccc2O)SC1(C)C [Compound 20, (S)-2-(2-Hydroxy-5-chlorophenylamino)-thiazoline-5,5-dimethyl-4-carboxylic acid methyl ester]
[1]
  IC50: 550 nM

## COc1ccc(NC2=N[C@@H](C(=O)O)C(C)(C)S2)c(O)c1 [Compound 26, (S)-2-(2-Hydroxy-4-methoxyphenylamino)-thiazoline-5,5-dimethyl-4-carboxylic acid]
[1]
  IC50: 140 nM

## NCC1(CC(=O)O)CCCCC1 [gabapentin, reference compound]
[3]; gabapentin 100 mg/kg i.p., 3 hrs (D1)
  Paw withdrawal threshold: 15 g (4×) and 5.18 g and 3.67 g and 6.58 g and 5.56 g
[3]; gabapentin 100 mg/kg i.p., 3 hrs (D3)
  Paw withdrawal threshold: 15 g (3×) and 3.33 g and 11.69 g and 8.61 g and 6.58 g and 9.86 g
[3]; gabapentin 100 mg/kg i.p., 5 hrs (D1)
  Paw withdrawal threshold: 10.31 g and 5.56 g and 6.58 g (2×) and 1.99 g and 6.66 g and 7.94 g and 6.4 g
[3]; gabapentin 100 mg/kg i.p., 5 hrs (D3)
  Paw withdrawal threshold: 15 g (2×) and 4.4 g and 4.72 g and 2.37 g and 6.58 g and 7.31 g and 6.66 g
[3]; gabapentin 100 mg/kg i.p., Pre-Drug (D1)
  Paw withdrawal threshold: 6.64 g and 1.65 g and 1.33 g and 1.56 g and 2.81 g (2×) and 4.23 g and 5.04 g
[3]; gabapentin 100 mg/kg i.p., Pre-Drug (D3)
  Paw withdrawal threshold: 6.64 g and 1.56 g and 1.4 g and 1.65 g and 5.57 g and 3.55 g and 3.58 g and 2.81 g
[3]; gabapentin 100 mg/kg i.p., Pre-Sx
  Paw withdrawal threshold: 15 g
[3]; 1 wk, 100 mg/kg
  Paw threshold: 1.56 g (2×) and 6.58 g (2×) and 3.73 g and 2.2 g and 4.25 g and 1.4 g
[3]; 2 wks, 100 mg/kg
  Paw threshold: 0.99 g and 1.31 g and 3.13 g and 1.4 g (2×) and 2.81 g (3×)
[3]; Pre-Sx
  Paw threshold: 15 g
[3]; rat, gabapentin 100 mg/kg i.p., 3 and 5 hours after each administration
  reversal of SNL tactile allodynia, positive control: consistently produced a statistically significant reversal of allodynia; also recorded: statistically significant reversal of hyperalgesia
[3]; rat, gabapentin, FIG. 25
  development of SNL tactile allodynia, positive control dosed only on day of surgery: failed to alter the course of development of allodynia
